Assay results taken from patent US9175077B2, “Nucleic acids encoding biologically active polypeptides derived from a novel early stage pregnancy factor designated maternin (MA)” (NOBEL BIOSCIENCES LLC, priority 1999, dated 2015).
pIC50: −log10 of the molar value.

Tests used:
[1] = test system: B16 melanoma and Lewis lung (LL) carcinoma; assay: Metastatic B16 melanoma and Lewis lung carcinoma in C57/BL mice; type: in vivo; details: MAS1 or MAS2 0.1 ug or 1.0 ug
Protocol: B16 melanoma and Lewis lung (LL) carcinoma cells were first shown to be susceptible to the pro-apoptotic effects of MA (FIG. 6, Panels C and D) at the same dose range used with cultured human tumor cells. The tumor cells grown in standard culture conditions were used to generate metastatic cancers in pathogen-free 6-8 week old C57/BL mice (Charles River). In one set of experiments, the animals were treated with MAS1 or MAS2 at two doses, 0.1 ug or 1.0 ug either in a pre-treatment protocol (two subcutaneous inoculations 24 and 48 hrs before transplanting the tumor cells).

[2] = test system: human bone marrow stem cells; assay: Engraftment of ex vivo expanded hematopoietic progenitor cells in irradiated rats; parameters: species or system Sprague Dawley rats; details: Rat S. Dawley irradiated 450 RAD; n = 3
From the text: (§1) The inventors also investigated the effect of MA on engraftment of human bone marrow stem cells [CD34^+, CD38″ cells, long term cultures after 4 mos, and stromal free cultures] ex vivo expanded hematopoietic progenitor cells in Rats irradiated [Sprague DAwley, 450 Rad] and immunodeficient mice [SCID or BNX-XID mice].
(§2) Measurement of short-term hematopoietic reconstitution kinetics and long term repopulating ability. Just prior to implantation, SCID, BNX-XID-immunodeficient mice and Sprague Dawley rats were exposed to 450 rad total body γ-irradiation. […] But the SCID and BNX-XID immunodeficient mice were repopulated by the cultured, treated human cells.

HIV-1 = test system: HIV-1
Protocol: Virus (MOI of 0.001) was added to 10^6 cells in RPMI-1640 with 10% FCS. One hour later the various polypeptides were added once. The cells cultured for 3 days with 5 ug PHA and 20 i.m. of II-2/ml at 37°, after which virus was estimated by determining p24 (HIV-1) or p27 (SIV) (Organon-Teknika).
The effect of native and synthetic MA on HIV-1 infection in vitro was evaluated using PHA and II-2 stimulated primary peripheral blood cells (PBMC), CD4+ T-cells enriched fractions from PBMC, and CD14+ macrophage enriched fractions. Infection was with HIV-1 IIIB (PBMC and CD4+ T-cells), HIV-1 Ba-L (macrophages), and two primary HIV-1 isolates not passaged in any cell line (PBMC).

[3] = test system: prostate carcinoma cell line PC4; assay: Confocal microscopy apoptosis; type: cell-based, human; details: 200 ng/ml; 24 hrs
[4] = test system: carcinoma of the lung HTB184; assay: Confocal microscopy apoptosis; type: cell-based, human; details: 200 ng/ml; 24 hrs
[5] = test system: carcinoma of the kidney HTB46; assay: Confocal microscopy apoptosis; type: cell-based, human; details: 200 ng/ml; 24 hrs
fibrosarcoma 4TB166 = assay: Confocal microscopy apoptosis; type: cell-based, human; details: 200 ng/ml; 24 hrs
gliobastoma HTB16 = assay: Confocal microscopy apoptosis; type: cell-based, human; details: 200 ng/ml; 24 hrs
[6] = test system: leukemia and lymphoma cell lines: HUT78, DAVDI, HG, SULTAN, T-cell lymphoma; assay: Confocal microscopy apoptosis; type: cell-based, human; details: 200 ng/ml; 24 hrs
melanoma HTB67 = assay: Confocal microscopy apoptosis; type: cell-based, human; details: 200 ng/ml; 24 hrs
[7] = test system: human bone marrow stem cells; assay: Engraftment of ex vivo expanded hematopoietic progenitor cells in SCID mice
From the text: as §1, §2

[8] = test system: human bone marrow stem cells; assay: Engraftment of ex vivo expanded hematopoietic progenitor cells in BNX-XID mice
From the text: as §1, §2

Acutely bled rats = type: in vivo, Sprague-Dawley rats; details: i.p. 24 and 48 hrs after 35-40% blood loss
From the text: To delineate the effects of MA on hematopoiesis in the absence of any external bone marrow suppression, blood (35-40% of total blood volume) was removed from five Sprague-Dawley rats by intracardiac puncture. […] Each panel illustrates the mean values for the three animals treated with MAS1. Thus, MA and related derivatives have potent pro-hematopoietic effects.

HIV-1 gene expression = assay: HIV-1 transgenic mice, pups feeding from treated mothers; type: in vivo; details: for survival / development of pups (qualitative): mothers treated, pups breast fed

With “VVCNYRDVRFESIRLPGCPRGVNPVVSYAVALSCQ [MA]” the “pro-apoptotic effect on neoplastic cells in vivo” value [1] was “potent pro-apoptotic effect”, the CD4 [2] was 1% and the CD14 [2] was 1%. For the same sequence, the CD34 [2] was 40%, the “inhibition of primary HIV-1 isolates in PBMCs” value (HIV-1) was “inhibited replication” and the pIC50 (HIV-1; read-out: concentration at which virus production was inhibited 50%, IIIB and Ba-L, p24 in extracellular fluid) was roughly 7.52. The induction of apoptosis [3] was “induced apoptosis”, the induction of apoptosis [4] was “induced apoptosis” and the induction of apoptosis [5] was “induced apoptosis”. For the same sequence, the induction of apoptosis (fibrosarcoma 4TB166) was “induced apoptosis”, the induction of apoptosis (gliobastoma HTB16) was “induced apoptosis” and the induction of apoptosis [6] was “induced apoptosis”. For the same sequence, the induction of apoptosis (melanoma HTB67) was “induced apoptosis”, the CD4 [7] was 2% and the CD14 [7] was 2%. For the same sequence, the CD34 [7] was 38%, the CD4 [8] was 3% and the CD14 [8] was 1%. For the same sequence, the CD34 [8] was 37%, the “recovery of peripheral blood cells” value (Acutely bled rats) was “prompt recovery” and the “weight over the ten day period” value (HIV-1 gene expression; 30-150 pmoles) was “quadrupled their weight”. For the same sequence, the “animals that eventually died” value (HIV-1 gene expression; low dose (30 pmoles), after 2 mos) was “about 50%”, the “survival / development of pups (qualitative)” value (HIV-1 gene expression) was “survived” and the “survival / development of pups (qualitative)” value (HIV-1 gene expression; listed as native MA) was “normal development”. The “HIV-1 viral expression in tissues” value (HIV-1 gene expression; mouse, in vivo) was “marked inhibition of viral expression”.
